Results on three compounds are retold here after ChEMBL document CHEMBL4396894, “The photodynamic activities of dimethyl 131-[2-(guanidinyl)ethylamino] chlorin e6 photosensitizers in A549 tumor” (Eur J Med Chem, 2019).

In series [1] the test system is A549. Nature of the series: Induction of intracellular ROS generation in human A549 cells at 1 uM preincubated for 4 hrs followed by compound washout measured under 650 nanometer laser light irradiation at 2 J/cm2 by DCFDA dye-based fluorescence microscopic analysis. The format is functional, cell-based.
Series [2] can be described thus: Emission property of a compound in DMSO assessed as red shift at 5 uM by 3D fluorescence spectra analysis. The series is classed as physicochemical.
The subject of series [3] is A549. Nature of the series: Photodynamic cytotoxicity against human A549 cells assessed as reduction in cell viability preincubated for 24 hrs followed by compound washout and subsequent 650 nanometer laser light irradiation at 0.5 to 2 J/cm2 measured by MTT assay. The series is classed as functional, cell-based.
Series [4] is described as follows: Drug uptake in human A549 cells measured after 1 to 24 hrs by fluorescence spectrophotometry. The format is ADME, cell-based.
Series [5] is described as follows: Drug localization in lysosome of human A549 cells at 1 uM after 4 hrs by lyso-tracker blue based laser confocal microscopic analysis. The series is classed as ADME, subcellular. To be noted: a549, 4 h.
Series [6] has as its system A549. Nature of the series: Photodynamic antitumor activity against human A549 cells xenografted in BALB/c nude mouse assessed as decrease in tumor weight at 0.15 mg/kg, iv irradiated with laser light at 120 J/cm2 measured 13 days post light irradiation. The series is classed as functional, organism-based.
In series [7] the test system is A549. The series can be described thus: Photodynamic antitumor activity against human A549 cells xenografted in BALB/c nude mouse assessed as increase in tumor tissue damage at 0.15 mg/kg, iv irradiated with laser light at 120 J/cm2 measured 24 hrs post light irradiation by H and E staining based histological analysis. The format is functional, organism-based.
The test system of series [8] is A549. The series can be described thus: Photodynamic antitumor activity against human A549 cells xenografted in BALB/c nude mouse assessed as increase in necrosis at 0.15 mg/kg, iv irradiated with laser light at 120 J/cm2 measured 24 hrs post light irradiation by H and E staining based histological analysis. The format is functional, organism-based.
For series [9], the system named is A549. Nature of the series: Dark toxicity in human A549 cells assessed as reduction in cell viability at 0.1 to 0.9 uM after 24 hrs by MTT assay. The series is classed as cell-based. To be noted: a549, 24 h.
Series [10] relates to A549. Nature of the series: Photodynamic antitumor activity against human A549 cells xenografted in BALB/c nude mouse assessed as increase in tumor tissue damage at 0.15 mg/kg, iv irradiated with laser light at 120 J/cm2 measured 24 hrs post light irradiation by TUNEL staining based histological analysis. The format is functional, organism-based.
In series [11] the test system is A549. The series can be described thus: Photodynamic antitumor activity against human A549 cells xenografted in BALB/c nude mouse assessed as increase in apoptosis at 0.15 mg/kg, iv irradiated with laser light at 120 J/cm2 measured 24 hrs post light irradiation by TUNEL staining based histological analysis. The format is functional, organism-based.
The nature of series [12]: Drug localization in mitochondria of human A549 cells at 1 uM after 4 hrs by mito-tracker green based laser confocal microscopic analysis. The format is ADME. To be noted: a549, 4 h.
In series [13] the test system is A549. Nature of the series: Dark toxicity in human A549 cells xenografted in BALB/c nude mouse assessed as increase in limb tumor tissue damage at 0.15 mg/kg, iv measured 24 hrs post treatment by TUNEL staining based histological assay. The format is organism-based. To be noted: in vivo.
Series [14] has as its system A549. The series can be described thus: Photodynamic antitumor activity against human A549 cells xenografted in BALB/c nude mouse assessed as increase in apoptosis at 0.15 mg/kg, iv irradiated with laser light at 120 J/cm2 measured 24 hrs post light irradiation by H and E staining based histological analysis. The series is classed as functional, organism-based.
A short description of series [15]: Absorption property of the compound in DMSO assessed as maximum absorption wavelength at 1 to 20 uM by UV-Vis spectra analysis. The format is physicochemical.
The nature of series [16]: Photobleaching property of the compound in DMSO at 10 uM irradiated with 650 nm laser light measured up to 90 mins by absorption spectra analysis.
The test system of series [17] is A549. Nature of the series: Dark toxicity in human A549 cells xenografted in BALB/c nude mouse assessed as reduction in tumor growth at 0.15 mg/kg, iv measured up to 14 days. The series is classed as organism-based. To be noted: in vivo, 336 h.
Series [18] has as its system A549. Nature of the series: Photodynamic antitumor activity against human A549 cells xenografted in BALB/c nude mouse assessed as decrease in tumor growth at 0.15 mg/kg, iv irradiated with laser light at 120 J/cm2 measured up to 14 days. The series is classed as functional, organism-based.
Series [19] can be described thus: Induction of singlet oxygen generation in DMF solution assessed as singlet oxygen quantum yield irradiated with 650 nanometer laser light for 5 to 30 secs measured immediately by DPBF-based assay. The format is functional.
Series [20] relates to A549. The series can be described thus: Photodynamic cytotoxicity against human A549 cells assessed as reduction in cell viability preincubated for 24 hrs followed by compound washout and subsequent 650 nanometer laser light irradiation at 2 J/cm2 measured by MTT assay. The format is functional, cell-based. Conditions: A549, light or radiation study.
Series [21] can be described thus: Drug localization in endoplasmic reticulum of human A549 cells at 1 uM after 4 hrs by DiOC6(3) ER-tracker green based laser confocal microscopic analysis. The series is classed as ADME, subcellular. Conditions: a549, 4 h.
For series [22], the system named is A549. Nature of the series: Photodynamic cytotoxicity against human A549 cells assessed as reduction in cell viability preincubated for 24 hrs followed by compound washout and subsequent 650 nanometer laser light irradiation at 1 J/cm2 measured by MTT assay. The format is functional, cell-based. To be noted: A549, light or radiation study.
The test system of series [23] is A549. The series can be described thus: Dark toxicity in human A549 cells xenografted in BALB/c nude mouse assessed as increase in limb tumor tissue damage at 0.15 mg/kg, iv measured 24 hrs post treatment by H and E staining based histological assay. The format is organism-based. To be noted: in vivo.
For series [24], the system named is A549. The series can be described thus: Photodynamic antitumor activity against human A549 cells xenografted in BALB/c nude mouse assessed as increase in necrosis at 0.15 mg/kg, iv irradiated with laser light at 120 J/cm2 measured 24 hrs post light irradiation by TUNEL staining based histological analysis. The series is classed as functional, organism-based.

Series [25] deals with A549. The series can be described thus: Photodynamic cytotoxicity against human A549 cells assessed as reduction in cell viability preincubated for 24 hrs followed by compound washout and subsequent 650 nanometer laser light irradiation at 0.5 J/cm2 measured by MTT assay. The series is classed as functional, cell-based. Conditions: A549, light or radiation study.
Series [26] has as its system A549. Nature of the series: Photodynamic antitumor activity against human A549 cells xenografted in BALB/c nude mouse assessed as tumor growth inhibition at 0.4 mg/kg, iv irradiated with laser light at 120 J/cm2 measured up to 14 days. The series is classed as functional. To be noted: A549, light or radiation study, 336 h, read-out: TGI.
For series [27], the system named is A549. The series can be described thus: Photodynamic cytotoxicity against human A549 cells assessed as reduction in cell viability at 0.1 to 0.9 uM preincubated for 24 hrs followed by compound washout and subsequent 650 nanometer laser light irradiation at 0.5 to 2 J/cm2 measured by MTT assay. The format is functional, cell-based.

Calls of active or inactive are those of the source. No cut-off for these calls is given here.

On to `C=Cc1c(C)c2cc3nc(c(CC(=O)OC)c4[nH]c(cc5nc(cc1[nH]2)C(C)=C5CC)c(C)c4C(=O)NCCN/C(=N\C(=O)OC(C)(C)C)NC(=O)OC(C)(C)C)[C@@H](CCC(=O)OC)[C@@H]3C`, for which the outcome in the series with A549 [1], in the series on A549 [6], in the series on A549 [7], in the series with A549 [8], with A549 [10] and in the series on A549 [11] was Active. For the same compound, the result in the series on A549 [14], in the series with A549 [18] and in the series with A549 [24] was Active. Besides, the Activity was 4 nm in series [2]; “Dose-dependent effect” with A549 [3]; “Non-Toxic” with A549 [9]; “Non-Toxic” with A549 [13]; 403 to 664 nm in series [15]; “Non-Toxic” in the series on A549 [17]. Besides, the Activity in series [19] is 1.98; with A549 [23], “Non-Toxic”. Further, the Drug uptake result in [4], in [5], in series [12] and in series [21] was “Active” throughout. Besides, the outcome in series [16] was inactive. In addition, the half-maximal inhibitory concentration (IC50) was found to be 197 nM in the series on A549 [20], 397 nM in the series with A549 [22] and 542 nM in the series with A549 [25]. The inhibition in vivo at 0.4 mg/kg in the series with A549 [26] worked out at 100%.

Turning to `Oc1cccc(-c2c3nc(c(-c4cccc(O)c4)c4ccc([nH]4)c(-c4cccc(O)c4)c4nc(c(-c5cccc(O)c5)c5ccc2[nH]5)CC4)C=C3)c1` [TEMOPORFIN], the outcome in the series with A549 [6], in the series with A549 [27] and with A549 [18] was Active. The Activity entry in the series with A549 [9] was “Non-Toxic”; with A549 [17] it was “Non-Toxic”; in series [19], 0.47 to 0.48. The values for the IC50 in the series on A549 [20], in the series with A549 [22] and with A549 [25] were 702 nM, 779 nM and 1100 nM, respectively.

For the compound `C=Cc1c(C)c2cc3nc(c(CC(=O)OC)c4[nH]c(cc5nc(cc1[nH]2)C(C)=C5CC)c(C)c4C(=O)NCCNC(=N)N)[C@@H](CCC(=O)OC)[C@@H]3C`, the result with A549 [1], in the series with A549 [6], with A549 [7], with A549 [8], with A549 [10] and in the series with A549 [11] was Active. The result with A549 [14], in the series on A549 [18] and in the series on A549 [24] was Active. Also, the Activity is 4 nm in series [2]; “Dose-dependent effect” in the series with A549 [3]; “Non-Toxic” with A549 [9]; “Non-Toxic” with A549 [13]; 403 to 664 nm in series [15]; “Non-Toxic” in the series on A549 [17]. Besides, the Activity is 2.03 in series [19] and “Non-Toxic” in the series on A549 [23]. For the same compound, the Drug uptake entry in series [4], in [5], in series [12] and in series [21] was “Active” in each case. Further, in series [16], the result was inactive. The IC50 in the series on A549 [20] was determined as 545 nM; with A549 [22], 886 nM; in the series with A549 [25] it was 1260 nM. Besides, in the series with A549 [26], the inhibition in vivo at 0.4 mg/kg was determined as 100%.
